From patent publication US20090280160A1, “PHENYLEPHRINE PHARMACEUTICAL FORMULATIONS AND COMPOSITIONS FOR TRANSMUCOSAL ABSORPTION” (Schering-Plough Healthcare Products, Inc., priority 2007, published 2009)
“Also recorded” adds a separate entry of the source.

Key:
[1] = target: T1, α1b adrenoreceptor (Homo sapiens, UniProt P35368); assay: Cellular calcium flux (FLIPR), α1b expressing CHO cells; format: cell-based; details: for increase in intracellular calcium, α1b calcium assay (in words): α1b expressing CHO cells
T1 construct: expressed in transfected cells
T1 sequence (P35368 1-520): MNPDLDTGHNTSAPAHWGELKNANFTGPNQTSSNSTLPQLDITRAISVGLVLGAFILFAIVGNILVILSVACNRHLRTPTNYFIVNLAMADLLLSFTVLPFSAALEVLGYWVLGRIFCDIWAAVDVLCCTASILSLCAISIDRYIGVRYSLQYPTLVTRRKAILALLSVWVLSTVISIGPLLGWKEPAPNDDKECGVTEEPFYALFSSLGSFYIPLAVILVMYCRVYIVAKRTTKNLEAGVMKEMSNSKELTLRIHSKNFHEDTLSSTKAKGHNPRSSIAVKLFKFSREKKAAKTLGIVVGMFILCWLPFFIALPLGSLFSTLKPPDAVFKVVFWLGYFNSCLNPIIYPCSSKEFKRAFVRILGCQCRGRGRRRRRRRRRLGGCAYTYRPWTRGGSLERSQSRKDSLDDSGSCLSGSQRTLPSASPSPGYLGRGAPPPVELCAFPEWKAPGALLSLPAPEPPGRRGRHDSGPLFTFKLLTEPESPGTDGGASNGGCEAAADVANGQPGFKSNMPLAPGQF
Procedure: (§1) The affinity and activity of phenylephrine metabolites were evaluated in human recombinant α1 and α2 adrenoreceptor binding and activity assays. […] Affinity of the metabolites was determined by receptor binding assays. Functional activity of the metabolites was assessed using an [^35S]-GTPγS binding exchange assay for the α2 receptor subtypes and a cell-based calcium flux response for the α1 receptor subtypes.
Intracellular calcium levels were measured using a fluorometric imaging plate reader (FLIPR). Cells expressing α1 adrenoreceptors were cultured overnight at 15,000 cells/well in 96 well black-wall clear bottom plates (Packard). Adherent cells were loaded for 1 hour at 37° C. using the FLIPR Calcium Plus Assay Kit (Molecular Probes, Eugene, Oreg.), which included 2.5 mM probenecid (Sigma). Compounds (at 10 mM in 100% DMSO) were diluted in diluting buffer (HBSS, 20 mM HEPES, 2.5 mM probenecid, 0.5% BSA, pH 7.4). A titration of norepinephrine was included in every experiment and norepinephrine (at 1 μM) was also used as a plate standard on each assay plate. Cells were maintained at 37° C. throughout all calcium measurements. Fluorescence data was collected at 1 second interval for 60 seconds, followed by collection at 2 second intervals for 30 seconds. Background fluorescence was quantitated in wells containing cells with no additions and was subtracted from all experimental samples. All conditions were done in quadruplicate. Non-linear regression analysis using GraphPad Prism was used to calculate EC50 values.
(§2) Each metabolite was evaluated in each assay in at least 2 independent experiments and a representative assay of each metabolite/assay combination is shown.

[2] = target: T2, α1a adrenoreceptor (Homo sapiens, UniProt P35348); assay: Competition binding, [3H]-prazosin, α1a CHO cell membranes
T2 construct: expressed in transfected cells
T2 sequence (P35348 1-466): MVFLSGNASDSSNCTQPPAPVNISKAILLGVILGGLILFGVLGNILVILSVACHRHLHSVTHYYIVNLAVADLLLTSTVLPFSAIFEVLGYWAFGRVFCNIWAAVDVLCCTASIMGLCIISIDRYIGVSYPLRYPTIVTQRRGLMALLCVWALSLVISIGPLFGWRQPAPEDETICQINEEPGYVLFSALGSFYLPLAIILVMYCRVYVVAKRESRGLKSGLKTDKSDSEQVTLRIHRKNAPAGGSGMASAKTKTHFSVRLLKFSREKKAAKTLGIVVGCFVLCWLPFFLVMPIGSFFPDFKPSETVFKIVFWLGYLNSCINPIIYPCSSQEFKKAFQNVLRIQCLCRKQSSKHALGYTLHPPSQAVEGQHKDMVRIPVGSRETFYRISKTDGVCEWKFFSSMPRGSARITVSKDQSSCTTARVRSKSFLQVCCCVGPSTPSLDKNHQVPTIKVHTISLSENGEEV

[3] = target: T3, α2b adrenoreceptor (Homo sapiens, UniProt P18089); assay: [35S]-GTPγS binding exchange, α2b CHO cell membranes; format: biochemical; details: for stimulation of [35S]-GTPγS binding, α2b (in words): CHO cell membranes
T3 construct: expressed in transfected cells; host or cells: CHO (Chinese hamster ovary) cells, membranes
T3 sequence (P18089 1-450): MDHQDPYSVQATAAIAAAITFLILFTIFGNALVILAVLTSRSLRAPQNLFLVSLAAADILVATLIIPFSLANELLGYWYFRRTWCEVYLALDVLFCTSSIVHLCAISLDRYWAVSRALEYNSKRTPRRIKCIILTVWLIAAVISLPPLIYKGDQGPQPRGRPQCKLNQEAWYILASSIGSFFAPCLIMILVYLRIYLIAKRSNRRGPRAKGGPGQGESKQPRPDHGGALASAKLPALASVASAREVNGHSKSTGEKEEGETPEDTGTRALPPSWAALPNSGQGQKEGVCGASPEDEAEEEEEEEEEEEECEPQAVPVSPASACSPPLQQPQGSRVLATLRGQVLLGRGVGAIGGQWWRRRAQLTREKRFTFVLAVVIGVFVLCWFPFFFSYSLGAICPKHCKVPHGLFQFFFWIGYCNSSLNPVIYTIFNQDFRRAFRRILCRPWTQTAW
Procedure: as §1
Assay buffer was 75 mM Tris-HCl pH 7.4, 12.5 mM MgCl2, 2 mM EDTA and 1 μM GDP. Plates were counted on a Packard TopCount. The percent increase over basal binding of [^35S]-GTPγS, a measure of efficacy, was calculated as follows: 100×[[mean total sample cpm−basal cpm]÷by basal cpm]. Basal cpm was defined as the mean cpm in the absence of agonist compound minus the mean non-specific binding cpm.
as §2

[4] = target: T3, α2b adrenoreceptor; assay: Competition binding, [3H]-UK14304, α2b CHO cell membranes; details: for inhibition of [3H]-UK14304 binding, α2b (in words): CHO cell membranes
Procedure: as §1
Competition Binding Assays
Competition binding assays for the α2 adrenoreceptors were performed using 20 μg membrane protein per well in binding buffer (75 mM Tris-HCl pH 7.4, 12.5 mM MgCl2, […] EDTA, 0.2% bovine serum albumin). […] Binding was terminated by rapid filtration through GF/C unifilter plates, presoaked with 0.3% polyethylenimine, with five washes with 0.5 ml cold 50 mM Tris-HCl ph 7.4, using a Packard Filtermate Harvester. After drying, bound radioactivity was determined by liquid scintillation counting (Packard TopCount) with Microscint 20, 50 μl/well. Binding data were analyzed using GraphPad Prism.
as §2

[5] = listed as PE glucuronide batch 4
[6] = highest concentration evaluated (10 μM)

Row | Structure (SMILES) | fold less potent than PE in inducing a calcium increase, α1b cells ([1]; batch b4, approximately 0.28% PE) | increase in intracellular calcium, α1b calcium assay (in words) [1] | increase in intracellular calcium, α1b calcium assay (in words) [1, 5] | inhibition of 3H-prazosin binding, α1a (in words) ([2]; CHO cell membranes) | stimulation of [35S]-GTPγS binding, α2b (in words) [3] | stimulation of [35S]-GTPγS binding, α2b (in words) ([3]; listed as PE glucuronide b2) | inhibition of [3H]-UK14304 binding, α2b (in words) [4] | inhibition of [3H]-UK14304 binding, α2b (in words) ([4]; listed as PE glucuronide b4) | inhibition of [3H]-UK14304 binding, α2b (in words) [4, 5] | agonist activity, α1b calcium assay (in words) [1, 6] | EC50 ([1]; α1b-expressing CHO cells, read-out: EC50, a1b Calcium (class symbol)) [µM] | Ki ([2]; [3H]-prazosin, read-out: Ki, a1a Binding (class symbol)) [µM] | binding / affinity, α1a receptor (in words) ([2]; concentrations up to 100 μM) | agonist activity, α2b [35S]-GTPγS assay (in words) [3, 6] | EC50 ([3]; read-out: EC50, a2b GTPγS (class symbol)) [µM] | Ki ([4]; [3H]-UK14304, read-out: Ki, a2b Binding (class symbol)) [µM] | binding / affinity, α2b receptor (in words) ([4]; at 100 μM (highest concentration evaluated))
1 | CNC[C@H](O)c1cccc(O[C@@H]2O[C@H](C(=O)O)[C@@H](O)[C@H](O)[C@H]2O)c1 [PE glucuronide, (R)-PE glucuronide] | 300-450 fold | consistent with level of contaminating phenylephrine; also recorded: pharmacologically inactive | minimal activity | No appreciable binding; also recorded: no binding affinity; also recorded: pharmacologically inactive | pharmacologically inactive | No stimulatory activity | weakly inhibits binding; also recorded: pharmacologically inactive | A small amount of binding | minimal activity | – | – | – | – | – | – | – | –
2 | O=C(O)C(O)c1cccc(O)c1 (centres unmarked) [3-hydroxymandelic acid] | – | not active | – | – | no activity | – | no significant binding | – | – | no activity | > 10 | > 100 | No appreciable binding; also recorded: no affinity | no activity | > 10 | > 100 | no affinity
